Data set [1] has as its system Lemna minor. Kind of data set: Lemna minor bioassay (dose-response, 7-day growth). The data set is classed as in vivo. The following applies: for EC50: 168 h, read-out: EC50 dose from dose-response analysis of Lemna minor growth. From the text:
A sterile culture of Lemna minor was obtained from the laboratory of Dr. Ryan Prosser (University of Guelph, School of Environmental Science). The culture was transferred to a 1 L Erlenmeyer flask containing a ½ strength Hoagland solution. The cultures were transferred to a growth chamber and were left for a growing period of 7 days. After the growth period, the Erlenmeyer flasks were brought to the lab to use the healthy plants for bioassay and water treatment experiments.
The temperature and humidity sensors were built in house by the Controlled Environment Systems Research Facility (CESRF) at the University of Guelph. The growth chamber conditions for humidity and temperature were recorded using an Acer Aspire 7750 laptop (P7YEO, Acer, Taiwan) and using the Termite software for data logging (version 3.4). The temperature was maintained at 25.68±0.02° C. and the relative humidity was 38.34±0.05%. Lumigrow pro 325 LED lights (LU60001, Lumigrow, USA) were used at a 80:10:10 ratio of Red:Blue:White as overhead lighting for plants (FIGS. 38A & 38B). Furthermore, a grid system inside the growth chamber with 36 grid boxes were used to place Erlenmeyer flasks in a completely randomized design (FIG. 38C). Each ‘grid’ was measured for photosynthetically active radiation (PAR) using a modular spectrometer (USB2000+, Ocean Optics Inc., USA). This allowed to account for random differences attributed to light intensity within the growth chamber. A heat map is generated with this information and in the middle of the ‘grid box’ there was a maximum intensity of […] (FIG. 39).
The analysis of dose-response curves for affecting the growth of Lemna minor was determined using the ‘drc’ package (v. 3.0-1, Christian Ritz, 2016) in the statistical program RStudio (v. 1.0.153, RStudio Inc., USA). The program was used to determine the EC 50 for each measured parameter for plant health and reproduction of the number of plants, number of fronds, and the dry weights of plants contained in each flask.
All solutions were treated with the four different water treatment methods and 75 mL of effluent solution was collected and added in 250 mL Erlenmeyer flasks. Negative control samples only contained 75 mL of deionized water, while all other treatments (positive control, Ozone, AOP, DSA, and BDD) contained 75 mL of the treated and non-treated solution. In a separate 3-litre beaker, a full-strength Hoagland solution was prepared and mixed with a magnetic stirrer (220T, Fisher Scientific, Canada). For each of the Erlenmeyer flasks containing the treated solutions, 75 mL of the Hoagland solution was added into each flask. […] Lemna minor that were previously cultured and acclimated to the ‘Grid box’ were then added to each flask. Two Lemna minor plants with three fronds each were added to flasks for the experiment. All 5 treatments contained 3 Erlenmeyer flasks giving a total of […] and the experiment was performed in triplicate. All of the flasks were placed at random inside the growth chamber within each grid and recorded their location. The pH and electrical conductivity of the solutions were also measured after the 7-day growth period.
Significant differences were only observed at the concentration of 15 mg/L of glyphosate for the final number of fronds and the dry weight of plants (FIGS. 41A & 41B). […] Noticeable differences such as the number of plants, lighter colour of fronds, and spindly roots can be visualized in comparison with the control (FIG. 42A) to the presence of 15 mg/L of glyphosate (FIG. 42B).

Data set [2] in a line: Electrochemical treatment of chemical standards in batch cell (DSA or BDD anodes). The following applies: for NPOC decrease / TN decrease: 2.27 mA/cm^2, up to 6-minute contact time, batch cell, 20 mg/L chloride. Details: reduction of compound in solution: concentration or dose not given beside the values. The data set is classed as physicochemical. The method, then:
Initial water treatment was performed by treating the solution by batch cell using the DSA and BDD anodes, as well as stainless steel (SS) cathodes. The experiment used a 2 L beaker and filled the beaker with 1.8 L of deionized water and dissolved the chemical standards glyphosate (45521, Sigma-Aldrich, USA) or paclobutrazol (46046, Sigma-Aldrich, USA) for separate treatments. The solution was constantly mixed using a magnetic stirrer (220T, Fisher Scientific, Canada) and bar during treatment with chemical standards. Samples containing glyphosate and paclobutrazol standards were submitted to the Agriculture and Food Laboratory (University of Guelph) to quantify samples using LC-MS/MS. The mean quantifiable limit for the analytical method was 8 μg/L for glyphosate, AMPA, and paclobutrazol. The non-purgeable organic carbon (NPOC) and total nitrogen (TN) of the solution were determined using a Shimadzu TOC-Vpn & TNM-1 analyzer. A calibration curve (R^2=0.99) was produced before performing the sample analysis using TOC and TN standards.
The degradation of both glyphosate (8.5 mg/L) and paclobutrazol (12 mg/L) was conducted with the use of electrochemical systems for a direct comparison on their efficacies in a batch cell configuration. […] The NPOC and TN had larger decreases between the 3 and 6-minute contact time with the DSA electrodes for glyphosate, while the changes were more subtle using BDD electrodes.

The test system of data set [3] is Lemna minor. Kind of data set: Water treatment of commercial pesticide solutions in the EFC followed by Lemna minor growth test. The data set is classed as in vivo.
The mark [4] stands for this setting: BDD electrodes, 2.27 mA/cm^2, 6-minute contact time, LC-MS/MS.
The mark [5] stands for this setting: DSA electrodes, 2.27 mA/cm^2, 6-minute contact time, LC-MS/MS.

In brackets after ≈: the same amount, converted by molar mass. Several values for one entry are separate records, joined by “and”; a condition that tells them apart may be missing. Identical values can stand only once. Entries after “also recorded” stand apart in the source; their conditions may differ. Like-named read-outs stand apart in the source and are kept apart here.

As usually defined, the EC50 is the concentration that produces a half-maximal response. In the case of `CC(C)(C)[C@@H](O)[C@@H](Cc1ccc(Cl)cc1)n1cncn1` (racemic) [paclobutrazol], the EC50 in the data set on Lemna minor [1] (Lemna minor, 7 days in growth chamber, glyphosate as Glyfos, paclobutrazol as Bonzi, drc package) stood at 0.01 µg/mL (≈ 0.034 µM). Also, in the data set on Lemna minor [1] (Lemna minor, in vivo, 7 days), the LOEC levels came out at 0.01 mg/L and the “concentration with significant differences for all measured parameters in the health of Lemna minor” value was determined as 50 ng/mL. Moreover, the “effect on plant physiological and reproductive health parameters vs control” value in the data set on Lemna minor [1] (in vivo) was “Significant decreases were observed for all tested concentrations”. In addition, the “reduction of compound in solution” value in data set [2] (setting [4]) was 80.94% and 81%. Further, in data set [2] (BDD electrodes), the NPOC decrease was 18.41% and 18%; the TN decrease is 22.58% and 23%. In data set [2] (setting [5]), the “reduction of compound in solution” value was 28.29% and 28%. In addition, in data set [2] (DSA electrodes), the NPOC decrease entry is reported as “unaffected; also recorded: no significant effect”; the TN decrease was 7.12% and 7%. Besides, the “concentration remaining after treatment, inferred from plant growth parameters” value with Lemna minor [3] (Bonzi, 3 mg/L paclobutrazol, BDD electrodes, recirculated 3 passes, 18 minutes total contact) is recorded as “lower than 0.05 mg/L”.
With `NCP(=O)(O)O` [AMPA, aminomethylphosphonic acid], the “increase of AMPA in glyphosate solution” value in data set [2] (BDD electrodes, 2.27 mA/cm^2, 0 to 6-minute contact time) is reported as 0.10 mg/L. Besides, the “AMPA concentration after treatment of glyphosate solution” value in data set [2] (BDD electrodes, 2.27 mA/cm^2, 6 minutes, increased from 0.009) is reported as 0.11 mg/L.
For the molecule `O=C(O)CNCP(=O)(O)O` [glyphosate, N-(phosphonomethyl)glycine], the “concentration with significant differences in final number of fronds and dry weight of plants” value in the data set on Lemna minor [1] (Glyfos, 7 days growth) came out at 15000 ng/mL. Also, the EC50 in the data set with Lemna minor [1] (Lemna minor) is around 9 µg/mL (≈ 53.2 µM). The “reduction of compound in solution” value in data set [2] (setting [4]) was 72.47% and 72%. Besides, the NPOC decrease in data set [2] (BDD electrodes) was 19.73%; in data set [2] (BDD electrodes, listed as Glyphosate), 20%; in data set [2] (DSA electrodes), 16.18% and 16%. Moreover, the TN decrease in data set [2] (BDD electrodes) is 32.61% and 32%; in data set [2] (DSA electrodes), 85.97% and 86%. Further, in data set [2] (setting [5]), the “level remaining in solution after treatment (below detection limit)” value is below 8 ng/mL. Moreover, the “concentration remaining after treatment, inferred from plant growth” value in the data set on Lemna minor [3] (Roundup, 7 mg/L glyphosate, DSA electrodes, 2.27 mA/cm^2, 1-minute contact time) was “lower than 2.5 mg/L”.

These data come from patent publication US12325646B2, “Fertigation water treatment” (UNIVERSITY OF GUELPH, priority 2019, dated 2025).
